From patent US4868321A, “Isothiocyanate intermediates” (FMC Corporation, priority 1988, dated 1989)

Experiments:
Type in all cases: in vivo
Cotton [1] = experiment: Preemergence Herbicidal Activity, Cotton; settings: Gossypium hirsutum, pre-emergence; for plant injury at 250 g/ha: 0.25 kg/ha
Procedure, shortened: (§1)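 Applications are made pre- or postemergence from 50/50 acetone/water solutions of each compound. Effect is recorded as % C at the stated kg/ha rate.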

Soybean [2] = experiment: Preemergence Herbicidal Activity, Soybean; settings: Glycine max, pre-emergence; for plant injury at 250 g/ha: 0.25 kg/ha
Procedure, shortened: (§2)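 Application rate is expressed per hectare in kilograms. Values are percent control.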

Field Corn [3] = experiment: Preemergence Herbicidal Activity, Field Corn; settings: Zea mays, pre-emergence; for plant injury at 250 g/ha: 0.25 kg/ha
Procedure, shortened: as §2

Rice [4] = experiment: Preemergence Herbicidal Activity, Rice; settings: Oryza sativa, pre-emergence; for plant injury at 250 g/ha: 0.25 kg/ha
Procedure, shortened: as §2

Wheat [5] = experiment: Preemergence Herbicidal Activity, Wheat; settings: Triticum aestivum, pre-emergence; for plant injury at 250 g/ha: 0.25 kg/ha
Procedure, shortened: as §2

Field Bindweed [6] = experiment: Preemergence Herbicidal Activity, Field Bindweed; settings: pre-emergence; for pest or weed control at 250 g/ha: 0.25 kg/ha
Procedure, shortened: as §1

Morningglory [7] = experiment: Preemergence Herbicidal Activity, Morningglory; settings: Ipomoea, pre-emergence; for pest or weed control at 250 g/ha: 0.25 kg/ha
Procedure, shortened: as §1

Velvetleaf [8] = experiment: Preemergence Herbicidal Activity, Velvetleaf; settings: Abutilon theophrasti, pre-emergence; for pest or weed control at 250 g/ha: 0.25 kg/ha
Procedure, shortened: as §1

Barnyardgrass [9] = experiment: Preemergence Herbicidal Activity, Barnyardgrass; settings: Echinochloa crus-galli, pre-emergence; for pest or weed control at 250 g/ha: 0.25 kg/ha
Procedure, shortened: (§3)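 Compounds were applied at rates given in kilograms per hectare, and herbicidal effect was scored as percent control.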

Green Foxtail [10] = experiment: Preemergence Herbicidal Activity, Green Foxtail; settings: Setaria viridis, pre-emergence; for pest or weed control at 250 g/ha: 0.25 kg/ha
Procedure, shortened: as §3

Johnsongrass [11] = experiment: Preemergence Herbicidal Activity, Johnsongrass; settings: Sorghum halepense, pre-emergence; for pest or weed control at 250 g/ha: 0.25 kg/ha
Procedure, shortened: as §3

Cotton [12] = experiment: Postemergence Herbicidal Activity, Cotton; settings: Gossypium hirsutum, post-emergence; for plant injury at 250 g/ha: 0.25 kg/ha
Procedure, shortened: as §1

Soybean [13] = experiment: Postemergence Herbicidal Activity, Soybean; settings: Glycine max, post-emergence; for plant injury at 250 g/ha: 0.25 kg/ha
Procedure, shortened: as §2

Field Corn [14] = experiment: Postemergence Herbicidal Activity, Field Corn; settings: Zea mays, post-emergence; for plant injury at 250 g/ha: 0.25 kg/ha
Procedure, shortened: as §2

Rice [15] = experiment: Postemergence Herbicidal Activity, Rice; settings: Oryza sativa, post-emergence; for plant injury at 250 g/ha: 0.25 kg/ha
Procedure, shortened: as §2

Wheat [16] = experiment: Postemergence Herbicidal Activity, Wheat; settings: Triticum aestivum, post-emergence; for plant injury at 250 g/ha: 0.25 kg/ha
Procedure, shortened: as §2

Field Bindweed [17] = experiment: Postemergence Herbicidal Activity, Field Bindweed; settings: post-emergence; for pest or weed control at 250 g/ha: 0.25 kg/ha
Procedure, shortened: as §1

Morningglory [18] = experiment: Postemergence Herbicidal Activity, Morningglory; settings: Ipomoea, post-emergence; for pest or weed control at 250 g/ha: 0.25 kg/ha
Procedure, shortened: as §1

Velvetleaf [19] = experiment: Postemergence Herbicidal Activity, Velvetleaf; settings: Abutilon theophrasti, post-emergence; for pest or weed control at 250 g/ha: 0.25 kg/ha
Procedure, shortened: as §1

Barnyardgrass [20] = experiment: Postemergence Herbicidal Activity, Barnyardgrass; settings: Echinochloa crus-galli, post-emergence; for pest or weed control at 250 g/ha: 0.25 kg/ha
Procedure, shortened: as §3

Green Foxtail [21] = experiment: Postemergence Herbicidal Activity, Green Foxtail; settings: Setaria viridis, post-emergence; for pest or weed control at 250 g/ha: 0.25 kg/ha
Procedure, shortened: as §3

Johnsongrass [22] = experiment: Postemergence Herbicidal Activity, Johnsongrass; settings: Sorghum halepense, post-emergence; for pest or weed control at 250 g/ha: 0.25 kg/ha
Procedure, shortened: as §3

Compound: CCCS(=O)(=O)N(c1cc(-n2nnn(CCCF)c2=O)c(F)cc1Br)S(=O)(=O)CCC [Compound 27]
- plant injury at 1000 g/ha (Cotton [1]; 1.0 kg/ha): 95%
- plant injury at 1000 g/ha (Soybean [2]; 1.0 kg/ha): 30%
- plant injury at 1000 g/ha (Field Corn [3]; 1.0 kg/ha): 95%
- plant injury at 1000 g/ha (Rice [4]; 1.0 kg/ha): 60%
- plant injury at 1000 g/ha (Wheat [5]; 1.0 kg/ha): 60%
- pest or weed control at 1000 g/ha (Field Bindweed [6]; 1.0 kg/ha): 100%
- pest or weed control at 1000 g/ha (Morningglory [7]; 1.0 kg/ha): 100%
- pest or weed control at 1000 g/ha (Velvetleaf [8]; 1.0 kg/ha): 100%
- pest or weed control at 1000 g/ha (Barnyardgrass [9]; 1.0 kg/ha): 100%
- pest or weed control at 1000 g/ha (Green Foxtail [10]; 1.0 kg/ha): 100%
- pest or weed control at 1000 g/ha (Johnsongrass [11]; 1.0 kg/ha): 95%
- plant injury at 1000 g/ha (Cotton [12]; 1.0 kg/ha): 100%
- plant injury at 1000 g/ha (Soybean [13]; 1.0 kg/ha): 90%
- plant injury at 1000 g/ha (Field Corn [14]; 1.0 kg/ha): 95%
- plant injury at 1000 g/ha (Rice [15]; 1.0 kg/ha): 30%
- plant injury at 1000 g/ha (Wheat [16]; 1.0 kg/ha): 80%
- pest or weed control at 1000 g/ha (Field Bindweed [17]; 1.0 kg/ha): 95%
- pest or weed control at 1000 g/ha (Morningglory [18]; 1.0 kg/ha): 100%
- pest or weed control at 1000 g/ha (Velvetleaf [19]; 1.0 kg/ha): 100%
- pest or weed control at 1000 g/ha (Barnyardgrass [20]; 1.0 kg/ha): 100%
- pest or weed control at 1000 g/ha (Green Foxtail [21]; 1.0 kg/ha): 100%
- pest or weed control at 1000 g/ha (Johnsongrass [22]; 1.0 kg/ha): 100%

Compound: CCCS(=O)(=O)Nc1cc(-n2nnn(CCCF)c2=O)c(F)cc1Cl [Compound 28, 1-[4-Chloro-2-fluoro-5-(N--propylsulfonylamino)phenyl]-1,4-dihydro-4-(3-fluoropropyl)-5H--tetrazol-5-one]
- plant injury at 500 g/ha (Cotton [1]; 0.5 kg/ha): 100%
- plant injury at 500 g/ha (Soybean [2]; 0.5 kg/ha): 0%
- plant injury at 500 g/ha (Field Corn [3]; 0.5 kg/ha): 30%
- plant injury at 500 g/ha (Rice [4]; 0.5 kg/ha): 70%
- plant injury at 500 g/ha (Wheat [5]; 0.5 kg/ha): 30%
- pest or weed control at 500 g/ha (Field Bindweed [6]; 0.5 kg/ha): 100%
- pest or weed control at 500 g/ha (Morningglory [7]; 0.5 kg/ha): 100%
- pest or weed control at 500 g/ha (Velvetleaf [8]; 0.5 kg/ha): 100%
- pest or weed control at 500 g/ha (Barnyardgrass [9]; 0.5 kg/ha): 95%
- pest or weed control at 500 g/ha (Green Foxtail [10]; 0.5 kg/ha): 90%
- pest or weed control at 500 g/ha (Johnsongrass [11]; 0.5 kg/ha): 70%
- plant injury at 500 g/ha (Cotton [12]; 0.5 kg/ha): 100%
- plant injury at 500 g/ha (Soybean [13]; 0.5 kg/ha): 30%
- plant injury at 500 g/ha (Field Corn [14]; 0.5 kg/ha): 40%
- plant injury at 500 g/ha (Rice [15]; 0.5 kg/ha): 70%
- plant injury at 500 g/ha (Wheat [16]; 0.5 kg/ha): 60%
- pest or weed control at 500 g/ha (Field Bindweed [17]; 0.5 kg/ha): 100%
- pest or weed control at 500 g/ha (Morningglory [18]; 0.5 kg/ha): 100%
- pest or weed control at 500 g/ha (Velvetleaf [19]; 0.5 kg/ha): 100%
- pest or weed control at 500 g/ha (Barnyardgrass [20]; 0.5 kg/ha): 100%
- pest or weed control at 500 g/ha (Green Foxtail [21]; 0.5 kg/ha): 100%
- pest or weed control at 500 g/ha (Johnsongrass [22]; 0.5 kg/ha): 95%

Compound: CCCS(=O)(=O)N(C)c1cc(-n2nnn(CCCF)c2=O)c(F)cc1Cl [Compound 29, 1-[4-Chloro-2-fluoro-5-(N--methyl-N--propylsulfonylamino)phenyl]-1,4-dihydro-4-(3-fluoropropyl)-5H--tetrazol-5-one]
- plant injury at 250 g/ha (Cotton [1]): 60%
- plant injury at 250 g/ha (Soybean [2]): 30%
- plant injury at 250 g/ha (Field Corn [3]): 95%
- plant injury at 250 g/ha (Rice [4]): 60%
- plant injury at 250 g/ha (Wheat [5]): 80%
- pest or weed control at 250 g/ha (Field Bindweed [6]): 70%
- pest or weed control at 250 g/ha (Morningglory [7]): 70%
- pest or weed control at 250 g/ha (Velvetleaf [8]): 100%
- pest or weed control at 250 g/ha (Barnyardgrass [9]): 100%
- pest or weed control at 250 g/ha (Green Foxtail [10]): 100%
- pest or weed control at 250 g/ha (Johnsongrass [11]): 100%
- plant injury at 250 g/ha (Cotton [12]): 70%
- plant injury at 250 g/ha (Soybean [13]): 70%
- plant injury at 250 g/ha (Field Corn [14]): 40%
- plant injury at 250 g/ha (Rice [15]): 60%
- plant injury at 250 g/ha (Wheat [16]): 80%
- pest or weed control at 250 g/ha (Field Bindweed [17]): 80%
- pest or weed control at 250 g/ha (Morningglory [18]): 70%
- pest or weed control at 250 g/ha (Velvetleaf [19]): 100%
- pest or weed control at 250 g/ha (Barnyardgrass [20]): 50%
- pest or weed control at 250 g/ha (Green Foxtail [21]): 60%
- pest or weed control at 250 g/ha (Johnsongrass [22]): 70%

Compound: O=c1n(CCCF)nnn1-c1cc(NS(=O)(=O)C(F)(F)F)c(Cl)cc1F [Compound 30, 1-[4-Chloro-2-fluoro-5-(N-trifluoromethylsulfonylamino)phenyl]-1,4-dihydro-4-(3-fluoropropyl)-5H-tetrazol-5-one]
- plant injury at 250 g/ha (Cotton [1]): 50%
- plant injury at 250 g/ha (Soybean [2]): 10%
- plant injury at 250 g/ha (Field Corn [3]): 10%
- plant injury at 250 g/ha (Rice [4]): 20%
- plant injury at 250 g/ha (Wheat [5]): 0%
- pest or weed control at 250 g/ha (Field Bindweed [6]): 95%
- pest or weed control at 250 g/ha (Morningglory [7]): 60%
- pest or weed control at 250 g/ha (Velvetleaf [8]): 100%
- pest or weed control at 250 g/ha (Barnyardgrass [9]): 0%
- pest or weed control at 250 g/ha (Green Foxtail [10]): 10%
- pest or weed control at 250 g/ha (Johnsongrass [11]): 60%
- plant injury at 250 g/ha (Cotton [12]): 90%
- plant injury at 250 g/ha (Soybean [13]): 40%
- plant injury at 250 g/ha (Field Corn [14]): 30%
- plant injury at 250 g/ha (Rice [15]): 10%
- plant injury at 250 g/ha (Wheat [16]): 10%
- pest or weed control at 250 g/ha (Field Bindweed [17]): 70%
- pest or weed control at 250 g/ha (Morningglory [18]): 80%
- pest or weed control at 250 g/ha (Velvetleaf [19]): 100%
- pest or weed control at 250 g/ha (Barnyardgrass [20]): 10%
- pest or weed control at 250 g/ha (Green Foxtail [21]): 0%
- pest or weed control at 250 g/ha (Johnsongrass [22]): 0%
